According to patent US8449898B2 (priority 2007, dated 2013):
Read-outs that look alike come from different tables or passages of the source.

Columns and labels:
[1] = test system: Phytophthora infestans (the causal agent of tomato late blight); assay: whole plant or invertebrate; format: in vivo; settings: for pest or weed control at 0.04 ppm: read-out: TLB Obsd (observed effect, tomato late blight), component (b) alone, 0.04 ppm; for TLB Obsd: component (b) alone
[2] = test system: Pseudoperonospora cubensis (the causal agent of cucumber downy mildew); assay: Test B: cucumber downy mildew, preventive spray on cucumber seedlings; format: in vivo
[3] = Phytophthora infestans, read-out: TLB Obsd (observed effect, tomato late blight), component (b) alone, 2 ppm
[4] = Phytophthora infestans, read-out: TLB Obsd (observed effect, tomato late blight), component (b) alone, 10 ppm
[5] = Phytophthora infestans, read-out: TLB Obsd (observed effect, tomato late blight), component (b) alone, 40 ppm
[6] = Pseudoperonospora cubensis, component (b) alone, 2 ppm, read-out: CDM Obsd (observed effect, cucumber downy mildew)
[7] = Pseudoperonospora cubensis, component (b) alone, 10 ppm, read-out: CDM Obsd (observed effect, cucumber downy mildew)
[8] = Pseudoperonospora cubensis, component (b) alone, 40 ppm, read-out: CDM Obsd (observed effect, cucumber downy mildew)
[9] = Phytophthora infestans, read-out: TLB Obsd (observed effect, tomato late blight), component (b) alone, 200 ppm
[10] = Pseudoperonospora cubensis, component (b) alone, read-out: CDM Obsd (observed effect, cucumber downy mildew)
[11] = Pseudoperonospora cubensis, component (b) alone, 200 ppm, read-out: CDM Obsd (observed effect, cucumber downy mildew)

N#Cc1c(Cl)c(Cl)c(Cl)c(C#N)c1Cl [chlorothalonil]
pest or weed control at 0.08 ppm ([1]; Phytophthora infestans, read-out: TLB Obsd (observed effect, tomato late blight), component (b) alone, 0.08 ppm): 14%
pest or weed control at 0.4 ppm ([1]; Phytophthora infestans, read-out: TLB Obsd (observed effect, tomato late blight), component (b) alone, 0.4 ppm): 14%
pest or weed control at 2 ppm [1, 3]: 21%
pest or weed control at 10 ppm [1, 4]: 100%
pest or weed control at 40 ppm [1, 5]: 100%
pest or weed control at 0.016 ppm ([1]; Phytophthora infestans, read-out: TLB Obsd, Table E, component (b) alone at 0.016 ppm): 31%
pest or weed control at 0.08 ppm ([1]; Phytophthora infestans, read-out: TLB Obsd, Table E, component (b) alone at 0.08 ppm): 0%
pest or weed control at 0.4 ppm ([1]; Phytophthora infestans, read-out: TLB Obsd, Table E, component (b) alone at 0.4 ppm): 73%
pest or weed control at 2 ppm ([1]; Phytophthora infestans, read-out: TLB Obsd, Table E, component (b) alone at 2 ppm): 100%
pest or weed control at 10 ppm ([1]; Phytophthora infestans, read-out: TLB Obsd, Table E, component (b) alone at 10 ppm): 100%
pest or weed control at 0.016 ppm ([2]; Pseudoperonospora cubensis, Table F, component (b) alone at 0.016 ppm, read-out: CDM Obsd): 47%
pest or weed control at 0.08 ppm ([2]; Pseudoperonospora cubensis, Table F, component (b) alone at 0.08 ppm, read-out: CDM Obsd): 33%
pest or weed control at 0.4 ppm ([2]; Pseudoperonospora cubensis, Table F, component (b) alone at 0.4 ppm, read-out: CDM Obsd): 47%
pest or weed control at 2 ppm ([2]; Pseudoperonospora cubensis, Table F, component (b) alone at 2 ppm, read-out: CDM Obsd): 99%
pest or weed control at 10 ppm ([2]; Pseudoperonospora cubensis, Table F, component (b) alone at 10 ppm, read-out: CDM Obsd): 100%
pest or weed control at 0.08 ppm ([2]; Pseudoperonospora cubensis, component (b) alone, 0.08 ppm, read-out: CDM Obsd (observed effect, cucumber downy mildew)): 0%
pest or weed control at 0.4 ppm ([2]; Pseudoperonospora cubensis, component (b) alone, 0.4 ppm, read-out: CDM Obsd (observed effect, cucumber downy mildew)): 0%
pest or weed control at 2 ppm [2, 6]: 0%
pest or weed control at 10 ppm [2, 7]: 70%
pest or weed control at 40 ppm [2, 8]: 71%

CCNC(=O)NC(=O)/C(C#N)=N/OC [cymoxanil]
pest or weed control at 0.4 ppm ([1]; Phytophthora infestans, read-out: TLB Obsd (disease control rating), Table A, component (b) alone 0.4 ppm): 9%
pest or weed control at 2 ppm ([1]; Phytophthora infestans, read-out: TLB Obsd (disease control rating), Table A, component (b) alone 2 ppm): 76%
pest or weed control at 10 ppm ([1]; Phytophthora infestans, read-out: TLB Obsd (disease control rating), Table A, component (b) alone 10 ppm): 100%
pest or weed control at 40 ppm ([1]; Phytophthora infestans, read-out: TLB Obsd (disease control rating), Table A, component (b) alone 40 ppm): 100%
pest or weed control at 200 ppm ([1]; Phytophthora infestans, read-out: TLB Obsd (disease control rating), Table A, component (b) alone 200 ppm): 100%
pest or weed control at 0.04 ppm ([1]; Phytophthora infestans): 44%
pest or weed control at 2 ppm [1, 3]: 46%
pest or weed control at 10 ppm [1, 4]: 100%
pest or weed control at 40 ppm [1, 5]: 100%
pest or weed control at 200 ppm [1, 9]: 100%
pest or weed control at 0.4 ppm ([2]; Pseudoperonospora cubensis, Table A, component (b) alone 0.4 ppm, read-out: CDM Obsd (disease control rating)): 47%
pest or weed control at 2 ppm ([2]; Pseudoperonospora cubensis, Table A, component (b) alone 2 ppm, read-out: CDM Obsd (disease control rating)): 47%
pest or weed control at 10 ppm ([2]; Pseudoperonospora cubensis, Table A, component (b) alone 10 ppm, read-out: CDM Obsd (disease control rating)): 47%
pest or weed control at 40 ppm ([2]; Pseudoperonospora cubensis, Table A, component (b) alone 40 ppm, read-out: CDM Obsd (disease control rating)): 47%
pest or weed control at 200 ppm ([2]; Pseudoperonospora cubensis, Table A, component (b) alone 200 ppm, read-out: CDM Obsd (disease control rating)): 47%
pest or weed control at 0.4 ppm ([2]; Pseudoperonospora cubensis, Table G, component (b) alone at 0.4 ppm, read-out: CDM Obsd): 26%
pest or weed control at 2 ppm ([2]; Pseudoperonospora cubensis, Table G, component (b) alone at 2 ppm, read-out: CDM Obsd): 26%
pest or weed control at 10 ppm ([2]; Pseudoperonospora cubensis, Table G, component (b) alone at 10 ppm, read-out: CDM Obsd): 26%
pest or weed control at 40 ppm ([2]; Pseudoperonospora cubensis, Table G, component (b) alone at 40 ppm, read-out: CDM Obsd): 26%
pest or weed control at 200 ppm ([2]; Pseudoperonospora cubensis, Table G, component (b) alone at 200 ppm, read-out: CDM Obsd): 26%
pest or weed control at 0.04 ppm [2, 10]: 15%
pest or weed control at 2 ppm [2, 6]: 0%
pest or weed control at 10 ppm [2, 7]: 0%
pest or weed control at 40 ppm [2, 8]: 0%
pest or weed control at 200 ppm [2, 11]: 21%

O=C1c2ccccc2C(=O)N1SC(Cl)(Cl)Cl [folpet]
pest or weed control at 0.4 ppm ([1]; Phytophthora infestans, read-out: TLB Obsd (disease control rating), Table C, component (b) alone 0.4 ppm): 0%
pest or weed control at 2 ppm ([1]; Phytophthora infestans, read-out: TLB Obsd (disease control rating), Table C, component (b) alone 2 ppm): 9%
pest or weed control at 10 ppm ([1]; Phytophthora infestans, read-out: TLB Obsd (disease control rating), Table C, component (b) alone 10 ppm): 9%
pest or weed control at 40 ppm ([1]; Phytophthora infestans, read-out: TLB Obsd (disease control rating), Table C, component (b) alone 40 ppm): 24%
pest or weed control at 200 ppm ([1]; Phytophthora infestans, read-out: TLB Obsd (disease control rating), Table C, component (b) alone 200 ppm): 75%
pest or weed control at 0.04 ppm ([1]; Phytophthora infestans): 0%
pest or weed control at 2 ppm [1, 3]: 8%
pest or weed control at 10 ppm [1, 4]: 31%
pest or weed control at 40 ppm [1, 5]: 46%
pest or weed control at 200 ppm [1, 9]: 93%
pest or weed control at 0.4 ppm ([2]; Pseudoperonospora cubensis, Table C, component (b) alone 0.4 ppm, read-out: CDM Obsd (disease control rating)): 47%
pest or weed control at 2 ppm ([2]; Pseudoperonospora cubensis, Table C, component (b) alone 2 ppm, read-out: CDM Obsd (disease control rating)): 47%
pest or weed control at 10 ppm ([2]; Pseudoperonospora cubensis, Table C, component (b) alone 10 ppm, read-out: CDM Obsd (disease control rating)): 47%
pest or weed control at 40 ppm ([2]; Pseudoperonospora cubensis, Table C, component (b) alone 40 ppm, read-out: CDM Obsd (disease control rating)): 92%
pest or weed control at 200 ppm ([2]; Pseudoperonospora cubensis, Table C, component (b) alone 200 ppm, read-out: CDM Obsd (disease control rating)): 95%
pest or weed control at 0.4 µg/mL ([2]; Pseudoperonospora cubensis, component (b) alone 0.4 ppm (Compound 1 0 ppm), read-out: CDM Obsd): 47%
pest or weed control at 2 µg/mL ([2]; Pseudoperonospora cubensis, component (b) alone 2 ppm (Compound 1 0 ppm), read-out: CDM Obsd): 47%
pest or weed control at 10 µg/mL ([2]; Pseudoperonospora cubensis, component (b) alone 10 ppm (Compound 1 0 ppm), read-out: CDM Obsd): 47%
pest or weed control at 40 µg/mL ([2]; Pseudoperonospora cubensis, component (b) alone 40 ppm (Compound 1 0 ppm), read-out: CDM Obsd): 47%
pest or weed control at 200 µg/mL ([2]; Pseudoperonospora cubensis, component (b) alone 200 ppm (Compound 1 0 ppm), read-out: CDM Obsd): 88%
pest or weed control at 0.04 ppm [2, 10]: 0%
pest or weed control at 2 ppm [2, 6]: 0%
pest or weed control at 10 ppm [2, 7]: 44%
pest or weed control at 40 ppm [2, 8]: 74%
pest or weed control at 200 ppm [2, 11]: 87%

CCNc1nc(CC)c(C(=O)NC(C#N)c2cccs2)s1 (stereo not shown) [ethaboxam]
TLB Obsd ([1]; 0.016 ppm): 22%
TLB Obsd ([1]; 0.08 ppm): 15%
TLB Obsd ([1]; 0.4 ppm): 95%
TLB Obsd ([1]; 2 ppm): 87%
TLB Obsd ([1]; 10 ppm): 100%
CDM Obsd ([2]; component (b) alone 0.016 ppm (Compound 1 0 ppm)): 47%
CDM Obsd ([2]; component (b) alone 0.08 ppm (Compound 1 0 ppm)): 47%
CDM Obsd ([2]; component (b) alone 0.4 ppm (Compound 1 0 ppm)): 47%
CDM Obsd ([2]; component (b) alone 2 ppm (Compound 1 0 ppm)): 82%
CDM Obsd ([2]; component (b) alone 10 ppm (Compound 1 0 ppm)): 100%
CDM Obsd ([2]; component (b) alone, 0.016 ppm): 0%
CDM Obsd ([2]; component (b) alone, 0.08 ppm): 0%
CDM Obsd ([2]; component (b) alone, 0.4 ppm): 41%
CDM Obsd ([2]; component (b) alone, 2 ppm): 100%
CDM Obsd ([2]; component (b) alone, 10 ppm): 100%
